Measurements reported in ChEMBL document CHEMBL3774387, “Synthesis and anticancer evaluation of spermatinamine analogues” (Bioorg Med Chem Lett, 2016).

Legend:
[1] = Cytotoxicity against human DU145 cells assessed as growth inhibition at 100 uM after 24 hrs by MTT assay (reference value: 1.2 to 7.8%); type: functional; details: DU-145, 24 h, read-out: GI
MCF7 [2] = assay: Cytotoxicity against human MCF7 cells assessed as growth inhibition at 1.25 uM after 24 hrs by MTT assay (reference value: 2.7 to 9.3%); type: functional; details: MCF7, 24 h, read-out: GI
[3] = Cytotoxicity against human DU145 cells assessed as growth inhibition at 10 uM after 24 hrs by MTT assay (reference value: 1.2 to 7.8%); type: functional; details: DU-145, 24 h, read-out: GI
MCF7 [4] = assay: Cytotoxicity against human MCF7 cells assessed as viable cells after 24 hrs by MTT assay; type: functional, cell-based; details: MCF7, 24 h
HeLa [5] = assay: Cytotoxicity against human HeLa cells assessed as growth inhibition at 5 uM after 24 hrs by MTT assay (reference value: 0 to 4.4%); type: functional; details: read-out: GI
[6] = Cytotoxicity against human DU145 cells assessed as growth inhibition at 2.5 uM after 24 hrs by MTT assay (reference value: 1.2 to 7.8%); type: functional; details: DU-145, 24 h, read-out: GI
MCF7 [7] = assay: Cytotoxicity against human MCF7 cells assessed as growth inhibition at 50 uM after 24 hrs by MTT assay (reference value: 2.7 to 9.3%); type: functional; details: MCF7, 24 h, read-out: GI
MCF7 [8] = assay: Cytotoxicity against human MCF7 cells assessed as growth inhibition at 10 uM after 24 hrs by MTT assay (reference value: 2.7 to 9.3%); type: functional; details: MCF7, 24 h, read-out: GI
MCF7 [9] = assay: Cytotoxicity against human MCF7 cells assessed as growth inhibition at 25 uM after 24 hrs by MTT assay (reference value: 2.7 to 9.3%); type: functional; details: MCF7, 24 h, read-out: GI
HeLa [10] = assay: Cytotoxicity against human HeLa cells assessed as viable cells after 48 hrs by MTT assay; type: functional, cell-based
HeLa [11] = assay: Cytotoxicity against human HeLa cells assessed as growth inhibition at 100 uM after 24 hrs by MTT assay (reference value: 0 to 4.4%); type: functional; details: read-out: GI
HeLa [12] = assay: Cytotoxicity against human HeLa cells assessed as growth inhibition at 2.5 uM after 24 hrs by MTT assay (reference value: 0 to 4.4%); type: functional; details: read-out: GI
MCF7 [13] = assay: Cytotoxicity against human MCF7 cells assessed as viable cells after 48 hrs by MTT assay; type: functional, cell-based; details: MCF7, 48 h
[14] = Cytotoxicity against human DU145 cells assessed as viable cells after 48 hrs by MTT assay; type: functional, cell-based; details: DU-145, 48 h
HeLa [15] = assay: Cytotoxicity against human HeLa cells assessed as growth inhibition at 1.25 uM after 24 hrs by MTT assay (reference value: 0 to 4.4%); type: functional; details: read-out: GI
MCF7 [16] = assay: Cytotoxicity against human MCF7 cells assessed as growth inhibition at 2.5 uM after 24 hrs by MTT assay (reference value: 2.7 to 9.3%); type: functional; details: MCF7, 24 h, read-out: GI
[17] = Cytotoxicity against human DU145 cells assessed as growth inhibition at 50 uM after 24 hrs by MTT assay (reference value: 1.2 to 7.8%); type: functional; details: DU-145, 24 h, read-out: GI
HeLa [18] = assay: Cytotoxicity against human HeLa cells assessed as growth inhibition at 25 uM after 24 hrs by MTT assay (reference value: 0 to 4.4%); type: functional; details: read-out: GI
HeLa [19] = assay: Cytotoxicity against human HeLa cells assessed as growth inhibition at 50 uM after 24 hrs by MTT assay (reference value: 0 to 4.4%); type: functional; details: read-out: GI
HeLa [20] = assay: Cytotoxicity against human HeLa cells assessed as growth inhibition at 10 uM after 24 hrs by MTT assay (reference value: 0 to 4.4%); type: functional; details: read-out: GI
[21] = Cytotoxicity against human DU145 cells assessed as viable cells after 24 hrs by MTT assay; type: functional, cell-based; details: DU-145, 24 h
HeLa [22] = assay: Cytotoxicity against human HeLa cells assessed as viable cells after 24 hrs by MTT assay; type: functional, cell-based
[23] = Cytotoxicity against human DU145 cells assessed as growth inhibition at 1.25 uM after 24 hrs by MTT assay (reference value: 1.2 to 7.8%); type: functional; details: DU-145, 24 h, read-out: GI
MCF7 [24] = assay: Cytotoxicity against human MCF7 cells assessed as growth inhibition at 5 uM after 24 hrs by MTT assay (reference value: 2.7 to 9.3%); type: functional; details: MCF7, 24 h, read-out: GI
[25] = Cytotoxicity against human DU145 cells assessed as growth inhibition at 25 uM after 24 hrs by MTT assay (reference value: 1.2 to 7.8%); type: functional; details: DU-145, 24 h, read-out: GI
[26] = Cytotoxicity against human DU145 cells assessed as growth inhibition at 5 uM after 24 hrs by MTT assay (reference value: 1.2 to 7.8%); type: functional; details: DU-145, 24 h, read-out: GI
MCF7 [27] = assay: Cytotoxicity against human MCF7 cells assessed as growth inhibition at 100 uM after 24 hrs by MTT assay (reference value: 2.7 to 9.3%); type: functional; details: MCF7, 24 h, read-out: GI
HeLa [28] = assay: Cytotoxicity against human HeLa cells assessed as growth inhibition at 5 uM after 48 hrs by MTT assay; type: functional; details: read-out: GI
HeLa [29] = assay: Cytotoxicity against human HeLa cells assessed as growth inhibition at 5 uM by MTT assay; type: functional, cell-based; details: TDE = time-dependent effect

CO/N=C(\Cc1cc(Br)c(OC)c(Br)c1)C(=O)NCCCNCCCCNCCCNC(=O)/C(Cc1cc(Br)c(OC)c(Br)c1)=N/OC
inhibition of growth at 100 µM [1]: 98.7%
inhibition of growth at 1.25 µM (MCF7 [2]): 15.4%
inhibition of growth at 10 µM [3]: 34.3%
IC50 (MCF7 [4]): 24.8 µM
inhibition of growth at 5 µM (HeLa [5]): 0%
inhibition of growth at 2.5 µM [6]: 24.1%
inhibition of growth at 50 µM (MCF7 [7]): 98.4%
inhibition of growth at 10 µM (MCF7 [8]): 33.1%
inhibition of growth at 25 µM (MCF7 [9]): 55.5%
IC50 (HeLa [10]): 25 µM
inhibition of growth at 100 µM (HeLa [11]): 97.4%
inhibition of growth at 2.5 µM (HeLa [12]): 0%
IC50 (MCF7 [13]): 19.1 µM
IC50 [14]: 27.7 µM
inhibition of growth at 1.25 µM (HeLa [15]): 0%
inhibition of growth at 2.5 µM (MCF7 [16]): 20.8%
inhibition of growth at 50 µM [17]: 99.2%
inhibition of growth at 25 µM (HeLa [18]): 70.4%
inhibition of growth at 50 µM (HeLa [19]): 97.8%
inhibition of growth at 10 µM (HeLa [20]): 20.2%
IC50 [21]: 26.2 µM
IC50 (HeLa [22]): 26.3 µM
inhibition of growth at 1.25 µM [23]: 24.6%
inhibition of growth at 5 µM (MCF7 [24]): 22.3%
inhibition of growth at 25 µM [25]: 55%
inhibition of growth at 5 µM [26]: 26.1%
inhibition of growth at 100 µM (MCF7 [27]): 98.1%

COc1c(Br)cc(C/C(=N\OCc2ccccc2)C(=O)NCCNCCNC(=O)/C(Cc2cc(Br)c(OC)c(Br)c2)=N/OCc2ccccc2)cc1Br
IC50 (MCF7 [4]): > 100 µM
IC50 (HeLa [10]): > 100 µM
IC50 (MCF7 [13]): > 100 µM
IC50 [14]: > 100 µM
IC50 [21]: > 100 µM
IC50 (HeLa [22]): > 100 µM

COc1c(Br)cc(C/C(=N\O)C(=O)NCCNCCNC(=O)/C(Cc2cc(Br)c(OC)c(Br)c2)=N/O)cc1Br
IC50 (MCF7 [4]): > 100 µM
IC50 (HeLa [10]): > 100 µM
IC50 (MCF7 [13]): > 100 µM
IC50 [14]: > 100 µM
IC50 [21]: > 100 µM
IC50 (HeLa [22]): > 100 µM

COc1c(Br)cc(C/C(=N\O)C(=O)NCCCNCCCCNCCCNC(=O)/C(Cc2cc(Br)c(OC)c(Br)c2)=N/O)cc1Br
IC50 (MCF7 [4]): > 100 µM
inhibition of growth at 5 µM (HeLa [28]): 90%
IC50 (HeLa [10]): > 100 µM
IC50 (MCF7 [13]): > 100 µM
IC50 [14]: > 100 µM
growth inhibition (GI) (HeLa [29]): tde
IC50 [21]: > 100 µM
IC50 (HeLa [22]): > 100 µM

COc1c(Br)cc(C/C(=N\OCc2ccccc2)C(=O)NCCCCCNC(=O)/C(Cc2cc(Br)c(OC)c(Br)c2)=N/OCc2ccccc2)cc1Br
IC50 (MCF7 [4]): > 100 µM
IC50 (HeLa [10]): > 100 µM
IC50 (MCF7 [13]): > 100 µM
IC50 [14]: > 100 µM
IC50 [21]: > 100 µM
IC50 (HeLa [22]): > 100 µM
